{"source": "patent US7846972B2", "about": "“Multimeric oleamide derivative having connexin-26 inhibiting potency and use thereof in cancer therapy, etc” (The New Industrial Research Organization, priority 2004, dated 2010)", "key": {"rat connexin 26 (Cx26)": {"biological_target": "T1, rat connexin 26 (Cx26) (Rattus norvegicus, UniProt P21994)", "T1 construct": "expressed in transfected cells; host or cells: HeLa cell subclone HeLa-Cx26 (human uterocervical squamous carcinoma)", "test": "Dye-transfer assay, GJIC through connexin 26 (HeLa-Cx26)", "format": "cell-based", "conditions": "for connexin 26 inhibitory activity: result in words", "experimental": "(§1) Next, with respect to each oleamide derivative synthesized by the method described above, we studied whether each derivative inhibited connexin 26 (in other words, whether each one inhibited the transfer of a substance from one cell to another through a gap junction formed by the connexin 26). The experimental method was the same as that described in International Publication WO 2004/060398. Each gap junction intercellular communication (GJIC) score of each test substance was evaluated by dye-transfer assay.\n(§2) In the same manner as in the method described in the above-mentioned publication, human uterocervical squamaous carcinoma cells (HeLa cells) were used for the experiment. More specifically, HeLa cell subclones (HeLa-Cx26 and HeLa-Cx43) were used, and they stably expressed rat connexin 26 (Cx26) and rat connexin 43 (Cx43), respectively. All cells (including those in the examples described later) were incubated in Dulbecco's modified eagle's medium (DMEM) with 10% fetal calf serum (FCS) added.\n(§3) A day before the assay, the HeLa-Cx26 and HeLa-Cx43 cells each were suspended individually in DMEM containing 10% FCS. The respective cells were divided to be cultured as donor cells and recipient cells. The recipient cells were cultured in a culture dish with a diameter of 3 cm and were adjusted to yield subconfluent monolayers at the time of assay.\nIn the assay, first, both the dyes of calcein (gap junction-permeable) and DiI (gap junction-impermeable) were added to the culture of donor cells at concentrations of 10 μM and 2 μM, respectively, and incubated for one hour. Double-labeled donor cells were trypsinized and washed three times with phosphate-buffered saline. Thereafter each single donor cell was overlaid gently on unlabeled recipient cells. It took one hour for the donor cell to settle over a monolayer. […] Dye transfer from a donor cell to an adjacent recipient cell through a gap junction was observed.\nIn order to evaluate the inhibitory activity of each test substance with respect to the dye-coupling, one hour after the donor cells were planted, oleamide and the multimeric oleamide derivatives described above each were dissolved in ethanol, and 10 μL thereof was then added to each culture dish so that the final concentration was 20 μM. For control, ethanol diluted 1000 times was added to a culture dish.\nIn FIG. 2, since the donor cell indicated with a “*” mark contains both the calcein (green fluorescence) and DiI (red fluorescence), it is shown in yellow in the original drawing. Furthermore, when gap junction-permeable calcein is transferred to a recipient cell through a gap junction by the dye coupling, this cell is shown in green. With such an assay, the GJIC score of each test substance is evaluated as follows.\n(§4) That is, the evaluation was made as “0” where no dye-coupling of a donor cell is found, “1” where the dye-coupling of a donor cell to an adjacent recipient cell is found, “2” and “3” in cases where calcein that has been transferred to the adjacent recipient cell is transferred to the second and third adjacent cells in a direction away from the donor cell, respectively, and so on. Also, as shown with arrows in the drawing, the extent of cell dyeing was evaluated with four levels of 0.25, 0.5, 0.75, and 1.0 as intermediate levels.\n(§5) Such an assay was carried out three times repeatedly. […] Then the average value and standard deviation of the GJIC scores of the respective test substances were calculated. […]"}, "rat connexin 43 (Cx43)": {"biological_target": "T2, rat connexin 43 (Cx43) (Rattus norvegicus, UniProt P08050)", "T2 construct": "expressed in transfected cells; host or cells: HeLa cell subclone HeLa-Cx43 (human uterocervical squamous carcinoma)", "T2 sequence (P08050 2-382 limits assumed)": "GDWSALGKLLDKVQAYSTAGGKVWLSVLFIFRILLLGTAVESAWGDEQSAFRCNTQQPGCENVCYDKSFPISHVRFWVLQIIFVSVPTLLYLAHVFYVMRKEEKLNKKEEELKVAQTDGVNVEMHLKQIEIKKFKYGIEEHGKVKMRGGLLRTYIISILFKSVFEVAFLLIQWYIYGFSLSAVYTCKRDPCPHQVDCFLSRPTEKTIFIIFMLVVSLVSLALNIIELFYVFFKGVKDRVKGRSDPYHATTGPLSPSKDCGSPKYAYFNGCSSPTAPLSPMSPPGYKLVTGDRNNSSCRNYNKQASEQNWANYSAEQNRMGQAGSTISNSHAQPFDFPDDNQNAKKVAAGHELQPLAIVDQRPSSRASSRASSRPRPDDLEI", "test": "Dye-transfer assay, GJIC through connexin 43 (HeLa-Cx43)", "format": "cell-based", "conditions": "for connexin 43 inhibitory activity: HeLa-Cx43, 20 μM, result in words", "experimental": "as §1, §2, §3\nIn the assay, first, both the dyes of calcein (gap junction-permeable) and DiI (gap junction-impermeable) were added to the culture of donor cells at concentrations of 10 μM and 2 μM, respectively, and incubated for one hour. Double-labeled donor cells were trypsinized and washed three times with phosphate-buffered saline. Thereafter each single donor cell was overlaid gently on unlabeled recipient cells. It took one hour for the donor cell to settle over a monolayer. […]\nIn FIG. 2, since the donor cell indicated with a “*” mark contains both the calcein (green fluorescence) and DiI (red fluorescence), it is shown in yellow in the original drawing. […] With such an assay, the GJIC score of each test substance is evaluated as follows.\nas §4, §5"}, "[1]": {"system": "BL6 cells (substrains of B16 mouse melanoma cells)", "format": "in vivo", "experimental": "The experiment was carried out by the same method as that described in International Publication WO 2004/060398. That is, after subcutaneously inoculating 1×10^5 BL6 cells (substrains of B16 mouse melanoma cells) to a planter of each 4-week-old C57BL/6 mouse, the mice were classified into two groups.\n(1) MI-22 administration group: a group of mice subjected to intraperitoneal injection of MI-22 (10 mg) dissolved in olive oil (10 mL) so as to be 0.01 mL per 1 g of the weight of a mouse, once a day (about 0.2 mL per administration) on consecutive days\n(2) Nontreatment (Nt) group: a group of mice subjected to no drug administration/treatment by injection.\nThis treatment was carried out on consecutive days from the next day of the BL6 cells inoculation. When tumors that had formed at the inoculation sites grew to have diameters of about 7 mm, the legs with the tumors were removed by amputation at the knee joints. Then the above-mentioned treatment was carried out for another two days after the amputation. Thereafter the mice were fed without being treated. Four weeks after the amputations at the knee joints, the mice were euthanized, and metastasized tubercles that had formed at the pleura surface in the left and right lungs (the number of foci that metastasized to the lungs) were counted visually. An evaluation was made using 15 mice per each group."}, "Az521 cells [2]": {"system": "Az521 cells", "test": "Cytotoxicity assay (cell growth inhibitory potential), trypan blue cell count", "format": "cell-based, human", "conditions": "Az521 cells in culture, 6-48 hours, FIG. 6", "experimental": "In order to examine the cytotoxicity (cell growth inhibitory potential) of MI-22, approximately 1×10^5 Az521 cells, which were human gastric cancer cells, were plated in each petri dish with a diameter of 3.5 cm and were cultured in the presence or absence (control) of MI-22. Then 6, 12, 24, 36, and 48 hours after the start of culture, the cells in each petri dish were taken off with trypsin-EDTA and then centrifuged. Thereafter the cells were dissolved in 10% FBS-containing DMEM, and then 10 μL of trypan blue was added to 10 μL thereof. After that, the number of cells was counted by the use of a counting chamber. The results are shown in the graphs in FIG. 6. The vertical axis indicates the number of cells, and the horizontal axis indicates the time. The graphs show averages of the results of experiments performed three times."}, "Az521 cells [3]": {"system": "Az521 cells", "test": "Cancer growth inhibition (antitumor effect), Az521 cells implanted subcutaneously in nude mice", "format": "in vivo, mouse", "experimental": "Az521 cells, which were human gastric cancer cells, were implanted subcutaneously into the back of each nude mouse. Then the cancer growth inhibitory effect (antitumor effect) provided by MI-22 peritoneal administration was examined. More specifically, 1-2×10^5 Az521 cells were injected subcutaneously into the back of each 4-week-old BALB/c nude mouse (nu/nu). Three days before the subcutaneous implantation, 0.1 mL of a solution containing MI-22 (10 mg) dissolved in olive oil (10 mL) was injected intraperitoneally. After the subcutaneous implantation, MI-22 was administered intraperitoneally in the same manner twice a week. For the control mice group, no drug administration/treatment by injection was carried out.\nThe sizes of tumors formed after the subcutaneous implantation were observed, and then the antitumor effect of MI-22 was evaluated with the weight of the tumors being measured over time. The results are shown in the graph in FIG. 7. The vertical axis indicates the weight (mg) of tumors, and the horizontal axis indicates the number of days after the subcutaneous implantation. The average values of six tumors are shown with respect to three nude mice."}, "[4]": {"test": "Solubility in organic solvent (handling property)", "format": "physicochemical"}, "[5]": {"conditions": "HeLa-Cx26, 20 μM, dye-transfer assay"}}, "note": "Entries after “also recorded” stand apart in the source; their conditions may differ.", "data": [{"smiles": "CCCCCCCC[C@H]1O[C@H]1CCCCCCCC(=O)NCCCCN(CCCNC(=O)CCCCCCC[C@@H]1O[C@@H]1CCCCCCCC)C(=O)CCCCCCC[C@@H]1O[C@@H]1CCCCCCCC", "note": "(relative stereo) [MI-51, N^1-{3-[8-{(2S*,3R*)-3-Octyl-oxiranyl}-octanoyl]-N-[4-{8[(2S*,3R*)-3-octyl-oxiranyl]-octanoylamino}-butyl]-aminopropyl}-{8-(2S*,3R*)-3-octyl-oxiranyl}octanamide]", "values": [{"measurement": "connexin 26 inhibitory activity as compared to the control by visual observation", "setting": "rat connexin 26 (Cx26); HeLa-Cx26, 20 μM, visual observation", "value": "found to have a connexin 26 inhibitory activity"}]}, {"smiles": "CCCCCCCC/C=C\\CCCCCCC(CCCC(CCCCCC/C=C\\CCCCCCCC)C(=O)N(CC)CC)C(=O)N(CC)CC", "note": "(stereo not drawn) [MI-22, N^1,N^1,N^7,N^7-Tetraethyl-2,6-di[(Z)-7-hexadecenyl]-heptanediamide]", "values": [{"measurement": "connexin 26 inhibitory activity", "setting": "rat connexin 26 (Cx26); [5]", "value": "strong connexin 26 inhibitory activity; also recorded: strong connexin 26 inhibitory activities"}, {"measurement": "GJIC score obtained through connexin 26", "setting": "rat connexin 26 (Cx26); HeLa-Cx26, final concentration 20 μM, dye-transfer assay, FIG. 3", "value": "≤ 2"}, {"measurement": "connexin 43 inhibitory activity", "setting": "rat connexin 43 (Cx43)", "value": "no connexin 43 inhibitory activity; also recorded: hardly inhibited the function of connexin 43; also recorded: no effect of inhibiting connexin 43 was found"}, {"measurement": "GJIC score obtained through connexin 43", "setting": "rat connexin 43 (Cx43); HeLa-Cx43, final concentration 20 μM, FIG. 3", "value": "almost the same as that of a control"}, {"measurement": "spontaneous metastasis of cancer vs nontreatment (Nt) group, result in words", "setting": "[1]; C57BL/6 mice, intraperitoneal once a day", "value": "inhibited/suppressed spontaneous metastasis of cancer conspicuously"}, {"measurement": "decrease of the number of metastatic foci in the lungs vs nontreatment (Nt) group", "setting": "[1]; C57BL/6 mice, intraperitoneal once a day, 4 weeks after amputation, FIG. 4", "value": 80, "unit": "%"}, {"measurement": "number of mice with lungs with slight spontaneous metastasis", "setting": "[1]; of 15 mice per group, FIG. 5 (Nt group: eight)", "value": "six"}, {"measurement": "number of mice with lungs with considerable spontaneous metastasis", "setting": "[1]; of 15 mice per group, FIG. 5 (Nt group: five)", "value": "two"}, {"measurement": "number of mice with lungs with no spontaneous metastasis of cancer", "setting": "[1]; of 15 mice per group, FIG. 5 (Nt group: two)", "value": "seven"}, {"measurement": "cytotoxicity (cell growth inhibitory potential), number of cells vs control", "setting": "Az521 cells [2]", "value": "no significant difference between MI-22 and control; also recorded: not found"}, {"measurement": "growth of tumors (weight of tumors) vs control mice group", "setting": "Az521 cells [3]; BALB/c nude mice, intraperitoneal twice a week, FIG. 7", "value": "suppressed conspicuously"}, {"measurement": "increase in the volume of tumors vs nontreatment mice group (NT)", "setting": "Az521 cells [3]; nude mice, intraperitoneal, FIG. 8", "value": "suppressed conspicuously"}, {"measurement": "solubility in an organic solvent", "setting": "[4]", "value": "dissolves well in an organic solvent"}]}, {"smiles": "CCCCCCCC/C=C\\CCCCCCC(CCCCCC(CCCCCC/C=C\\CCCCCCCC)C(=O)N(CC)CC)C(=O)N(CC)CC", "note": "(stereo not drawn) [MI-39, N^1,N^1,N^9,N^9-Tetraethyl-2,8-di[(Z)-7-hexadecenyl]nonanediamide]", "values": [{"measurement": "connexin 26 inhibitory activity", "setting": "rat connexin 26 (Cx26); [5]", "value": "strong connexin 26 inhibitory activity; also recorded: strong connexin 26 inhibitory activities"}, {"measurement": "connexin 43 inhibitory activity", "setting": "rat connexin 43 (Cx43)", "value": "no connexin 43 inhibitory activity; also recorded: hardly inhibited the function of connexin 43"}]}, {"smiles": "CCCCCCCC/C=C\\CCCCCCCC(=O)NCCCNC(=O)CCCCCCC/C=C\\CCCCCCCC", "note": "[MI-45, N^1-[(Z)-3-Octadec-9-enoylaminopropyl]-(Z)-9octadecenamide]", "values": [{"measurement": "connexin 26 inhibitory activity", "setting": "rat connexin 26 (Cx26); [5]", "value": "strong connexin 26 inhibitory activity; also recorded: strong connexin 26 inhibitory activities"}, {"measurement": "connexin 43 inhibitory activity", "setting": "rat connexin 43 (Cx43)", "value": "no connexin 43 inhibitory activity; also recorded: hardly inhibited the function of connexin 43"}]}]}
